In patent publication US11591323B2, “Muscarinic agonists as non-steroidal and non-opioid analgesics and methods of use thereof” (Barry University, priority 2019, dated 2023):
Values joined by “and” are separate entries in the source; they are usually repeats but may differ in a detail not shown here. Identical values can stand only once. Like-named read-outs stand apart in the source and are kept apart here.

How the values were obtained:
Set-up in all cases: host or cells: CHO cells, stably transfected
[1] = molecular target: T1, M3 muscarinic receptor (Homo sapiens, UniProt P20309); assay: accumulation of IPX, M3 CHO cells (M3Gq); format: cell-based
T1 sequence (P20309 whole entry): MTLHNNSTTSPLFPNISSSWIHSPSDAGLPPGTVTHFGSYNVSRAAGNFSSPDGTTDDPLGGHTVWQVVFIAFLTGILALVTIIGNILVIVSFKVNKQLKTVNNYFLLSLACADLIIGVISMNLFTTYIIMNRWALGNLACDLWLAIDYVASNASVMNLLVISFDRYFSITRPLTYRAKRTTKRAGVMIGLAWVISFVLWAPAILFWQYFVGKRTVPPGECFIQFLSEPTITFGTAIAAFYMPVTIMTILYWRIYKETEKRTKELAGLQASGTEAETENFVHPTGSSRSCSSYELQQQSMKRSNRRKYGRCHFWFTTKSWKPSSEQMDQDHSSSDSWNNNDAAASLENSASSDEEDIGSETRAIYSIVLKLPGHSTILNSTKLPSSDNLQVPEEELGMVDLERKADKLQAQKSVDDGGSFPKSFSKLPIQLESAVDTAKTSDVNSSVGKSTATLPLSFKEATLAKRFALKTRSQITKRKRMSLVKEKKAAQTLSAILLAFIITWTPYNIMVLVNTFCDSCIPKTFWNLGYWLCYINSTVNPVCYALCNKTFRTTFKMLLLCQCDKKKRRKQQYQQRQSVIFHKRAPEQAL

[2] = molecular target: T1, M3 muscarinic receptor; assay: [3H]NMS competition binding, M3 CHO membranes
[3] = molecular target: T2, M2 muscarinic receptor (Homo sapiens, UniProt P08172); assay: inhibition of forskolin-stimulated cAMP, M2 CHO cells (M2Gi); format: cell-based
T2 sequence (P08172 1-466): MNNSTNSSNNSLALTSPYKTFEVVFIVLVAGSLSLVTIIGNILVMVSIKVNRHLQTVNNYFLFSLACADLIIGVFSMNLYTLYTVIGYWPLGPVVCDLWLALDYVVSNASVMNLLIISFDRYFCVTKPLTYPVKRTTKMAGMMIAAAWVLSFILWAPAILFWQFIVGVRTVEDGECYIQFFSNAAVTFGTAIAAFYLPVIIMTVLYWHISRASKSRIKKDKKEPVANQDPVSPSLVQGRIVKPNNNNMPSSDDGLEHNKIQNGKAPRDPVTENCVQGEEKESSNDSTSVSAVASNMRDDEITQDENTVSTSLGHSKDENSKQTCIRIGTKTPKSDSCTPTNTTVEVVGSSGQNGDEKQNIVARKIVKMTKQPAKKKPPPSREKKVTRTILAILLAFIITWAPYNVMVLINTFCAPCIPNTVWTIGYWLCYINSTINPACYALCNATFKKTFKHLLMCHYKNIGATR

[4] = molecular target: T3, M1 muscarinic receptor (Homo sapiens, UniProt P11229); assay: accumulation of inositol phosphates IPX, M1 CHO cells (M1Gq); format: cell-based
T3 sequence (P11229 1-460): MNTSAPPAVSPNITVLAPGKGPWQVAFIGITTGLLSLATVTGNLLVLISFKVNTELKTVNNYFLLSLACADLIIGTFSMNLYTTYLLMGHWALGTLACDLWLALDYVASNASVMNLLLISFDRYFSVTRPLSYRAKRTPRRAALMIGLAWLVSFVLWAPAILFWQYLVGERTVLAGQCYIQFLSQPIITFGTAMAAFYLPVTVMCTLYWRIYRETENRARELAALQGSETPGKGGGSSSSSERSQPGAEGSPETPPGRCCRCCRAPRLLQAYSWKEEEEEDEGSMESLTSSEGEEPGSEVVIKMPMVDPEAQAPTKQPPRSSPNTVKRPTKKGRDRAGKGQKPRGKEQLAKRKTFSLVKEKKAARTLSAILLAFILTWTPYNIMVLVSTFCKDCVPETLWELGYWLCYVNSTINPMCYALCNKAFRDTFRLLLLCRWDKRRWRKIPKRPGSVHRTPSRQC

[5] = molecular target: T2, M2 muscarinic receptor; assay: [3H]NMS competition binding, M2 CHO membranes
[6] = molecular target: T3, M1 muscarinic receptor; assay: [3H]NMS competition binding, M1 CHO membranes
[7] = molecular target: T4, M5 muscarinic receptor (Homo sapiens, UniProt P08912); assay: [3H]NMS competition binding, M5 CHO membranes
T4 sequence (P08912 1-532): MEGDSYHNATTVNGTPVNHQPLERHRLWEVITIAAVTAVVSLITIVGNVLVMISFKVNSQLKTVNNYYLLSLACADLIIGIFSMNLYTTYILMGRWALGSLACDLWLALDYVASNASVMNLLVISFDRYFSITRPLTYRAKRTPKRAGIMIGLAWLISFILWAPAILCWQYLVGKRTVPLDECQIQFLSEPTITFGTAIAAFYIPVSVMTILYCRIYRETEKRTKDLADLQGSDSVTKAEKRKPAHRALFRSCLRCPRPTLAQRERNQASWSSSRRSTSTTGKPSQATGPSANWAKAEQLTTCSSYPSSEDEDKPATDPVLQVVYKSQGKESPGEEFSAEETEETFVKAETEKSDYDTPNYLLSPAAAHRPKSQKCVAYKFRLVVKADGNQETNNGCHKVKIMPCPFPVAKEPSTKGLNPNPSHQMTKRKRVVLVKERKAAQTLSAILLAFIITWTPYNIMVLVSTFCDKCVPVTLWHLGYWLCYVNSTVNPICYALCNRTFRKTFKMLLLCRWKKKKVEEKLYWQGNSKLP

[8] = molecular target: T4, M5 muscarinic receptor; assay: accumulation of IPX, M5 CHO cells (M5Gq); format: cell-based
[9] = M2 (↓cAMP), preferential response, Table 7, operational efficacy
[10] = M2 (↓cAMP), preferential response, relative to carbachol, Tables 2, 3, 7
[11] = M2 (↓cAMP), preferential response, to carbachol, Tables 2, 3, 7
[12] = M5 (↑IPX), preferential response, Table 7
[13] = M5 (↑IPX), preferential response, Table 7, operational efficacy
[14] = M5 (↑IPX), preferential response, relative to carbachol, Tables 2, 3, 7
[15] = M5 (↑IPX), preferential response, to carbachol, Tables 2, 3, 7

O=C1CCCN1CC#CCN1CCCC1 [oxotremorine, reference compound]
EC50 [1]: 95.5 nM
E′MAX [1]: 22 ± 2 fold over basal
Kd [1]: 398 nM
RAi [1]: 4.14 ± 0.38 and 4.14 ± 0.41
pEC50 [1]: 7.02 ± 0.04
pKA [1]: 6.4 ± 0.1
Δlog(τ/KA) [1]: −0.62 ± 0.06
τ [1]: 2.97 ± 0.30 and 3.0 ± 0.3
Ki ([2]; Inhibition constants (KI) as negative logarithms, M3, high site): 10 nM
Ki ([2]; Inhibition constants (KI) as negative logarithms, M3, low site): 447 nM
EC50 [3]: 5.75 nM
Kd [3]: 12.6 nM
E′MAX ([3]; M2 (↓cAMP), preferential response, Table 7): 43 ± 1 % inhibition
τ [3, 9]: 0.96 ± 0.08
RAi [3, 10]: 6.34 ± 0.15
Δlog(τ/KA) [3, 11]: −0.81 ± 0.01
E′MAX ([3]; M2Gi (↓cAMP), Table 8): 43 ± 1 % inhibition
pEC50 ([3]; M2Gi (↓cAMP), Table 8): 8.24 ± 0.04
pKA ([3]; M2Gi (↓cAMP), Table 8): 7.9 ± 0.1
τ ([3]; M2Gi (↓cAMP), Table 8): 1.0 ± 0.1
RAi ([3]; M2Gi (↓cAMP), Table 8, relative to carbachol): 6.34 ± 0.15
Δlog(τ/KA) ([3]; M2Gi (↓cAMP), Table 8, to carbachol): −0.81 ± 0.01
Kd [4]: 200 nM
RAi [4]: 3.71 ± 0.29 and 3.84 ± 0.28
pKA [4]: 6.7 ± 0.1
Δlog(τ/KA) [4]: −0.57 ± 0.06 and −0.58 ± 0.05
τ [4]: 2.55 ± 0.25 and 2.6 ± 0.3
EC50 ([4]; pEC50): 52.5 nM and 55 nM
Ki ([5]; Inhibition constants (KI) as negative logarithms, M2, high site, reference agonists, high affinity site): 12.6 nM
Ki ([5]; Inhibition constants (KI) as negative logarithms, M2, low site, reference agonists, low affinity site): 575 nM
Ki ([6]; Inhibition constants (KI) as negative logarithms, M1, high site): 7.94 nM
Ki ([6]; Inhibition constants (KI) as negative logarithms, M1, low site): 372 nM
Ki ([7]; Inhibition constants (KI) as negative logarithms, M5, high site, reference agonists, high affinity site): 12.6 nM
Ki ([7]; Inhibition constants (KI) as negative logarithms, M5, low site, reference agonists, low affinity site): 537 nM
Kd [8]: 251 nM
E′MAX [8, 12]: 16 ± 1 fold over basal
τ [8, 13]: 2.60 ± 0.30
RAi [8, 14]: 4.12 ± 0.26
Δlog(τ/KA) [8, 15]: −0.62 ± 0.07
E′MAX ([8]; M5Gq (↑IPX), Table 8): 16 ± 1 fold over basal
pKA ([8]; M5Gq (↑IPX), Table 8): 6.6 ± 0.1
τ ([8]; M5Gq (↑IPX), Table 8): 2.2 ± 0.3
RAi ([8]; M5Gq (↑IPX), Table 8, relative to carbachol): 4.37 ± 0.29
Δlog(τ/KA) ([8]; M5Gq (↑IPX), Table 8, to carbachol): −0.64
EC50 ([8]; pEC50, M5 (↑IPX), preferential response, Table 7): 70.8 nM
EC50 ([8]; pEC50, M5Gq (↑IPX), Table 8): 74.1 nM

Brc1ccc(CN2CC=CCC2)s1.Cl [Compound 6C, 1-[(5-bromothiophen-2-yl)methyl]-1,2,3,6-tetrahydropyridin-1-ium chloride]
E′MAX ([1]; M3 (↑IPX), preferential response, Table 7): 1.8 ± 0.1 fold over basal
τ ([1]; M3 (↑IPX), preferential response, Table 7, operational efficacy): 0.03 ± 0.01
Kd ([1]; M3 (↑IPX), preferential response, Table 7, operational model, read-out: pKA (converted)): 3980 nM
EC50 ([1]; M3 (↑IPX), preferential response, Table 7, read-out: pEC50 (converted)): 5010 nM
RAi ([1]; M3 (↑IPX), preferential response, relative to carbachol, Tables 2, 3, 7): 0.0029 ± 0.0004
Δlog(τ/KA) ([1]; M3 (↑IPX), preferential response, to carbachol, Tables 2, 3, 7): 2.53 ± 0.33
Ki ([2]; competition with 1 nM [3H]NMS, read-out: Inhibition constants (Ki) as negative logarithms, M3 (converted)): 14100 nM
Emax ([3]; CHO, M2 (↓cAMP), preferential response, Table 7, read-out: E′MAX): 24 ± 1%
τ [3, 9]: 0.38 ± 0.04
Kd ([3]; M2 (↓cAMP), preferential response, Table 7, operational model, read-out: pKA (converted)): 3160 nM
EC50 ([3]; M2 (↓cAMP), preferential response, Table 7, read-out: pEC50 (converted)): 2190 nM
RAi [3, 10]: 0.0070 ± 0.0006
Δlog(τ/KA) [3, 11]: 2.02 ± 0.22
E′MAX ([4]; M1 (↑IPX), preferential response, Table 7): 2.1 ± 0.2 fold over basal
τ ([4]; M1 (↑IPX), preferential response, Table 7, operational efficacy): 0.03 ± 0.01
Kd ([4]; M1 (↑IPX), preferential response, Table 7, operational model, read-out: pKA (converted)): 3980 nM
EC50 ([4]; M1 (↑IPX), preferential response, Table 7, read-out: pEC50 (converted)): 3470 nM
RAi ([4]; M1 (↑IPX), preferential response, relative to carbachol, Tables 2, 3, 7): 0.0024 ± 0.0002
Δlog(τ/KA) ([4]; M1 (↑IPX), preferential response, to carbachol, Tables 2, 3, 7): 2.62 ± 0.36
Ki ([5]; competition with 1 nM [3H]NMS, read-out: Inhibition constants (Ki) as negative logarithms, M2 (converted)): 10000 nM
Ki ([6]; competition with 1 nM [3H]NMS, read-out: Inhibition constants (Ki) as negative logarithms, M1 (converted)): 7590 nM
Ki ([7]; competition with 1 nM [3H]NMS, read-out: Inhibition constants (Ki) as negative logarithms, M5 (converted)): 12900 nM
E′MAX [8, 12]: 1.36 ± 0.08 fold over basal
τ [8, 13]: 0.02 ± 0.01
Kd ([8]; M5 (↑IPX), preferential response, Table 7, operational model, read-out: pKA (converted)): 7940 nM
EC50 ([8]; M5 (↑IPX), preferential response, Table 7, read-out: pEC50 (converted)): 7590 nM
RAi [8, 14]: 0.0009 ± 0.0003
Δlog(τ/KA) [8, 15]: 3.03 ± 0.95
